± gives the expanded uncertainty stated by the source.
Test: xn = mol fraction of the nth substance listed
Details: 100 kPa, Liquid; for mass density: Vibrating tube method; for viscosity: Capillary tube (Ostwald / Ubbelohde) method

## CCC(C)CO (stereo not given) [2-methyl-1-butanol] + CCCC(C)O
308.15 K, x2 = 0
  mass density: 808.29 ± 0.78 kg/m3
308.15 K, x2 = 0.1
  mass density: 807.23 ± 0.78 kg/m3
308.15 K, x2 = 0.2
  mass density: 806.15 ± 0.78 kg/m3
308.15 K, x2 = 0.301
  mass density: 805.06 ± 0.78 kg/m3
308.15 K, x2 = 0.4
  mass density: 803.97 ± 0.78 kg/m3
308.15 K, x2 = 0.5
  mass density: 802.86 ± 0.78 kg/m3
308.15 K, x2 = 0.6
  mass density: 801.76 ± 0.78 kg/m3
308.15 K, x2 = 0.7
  mass density: 800.64 ± 0.78 kg/m3
308.15 K, x2 = 0.8
  mass density: 799.52 ± 0.78 kg/m3
308.15 K, x2 = 0.9
  mass density: 798.36 ± 0.78 kg/m3
313.15 K, x2 = 0
  viscosity: 2.783 ± 0.11 mPa·s
  mass density: 804.41 ± 0.78 kg/m3
313.15 K, x2 = 0.1
  viscosity: 2.586 ± 0.11 mPa·s
  mass density: 803.33 ± 0.78 kg/m3
313.15 K, x2 = 0.2
  viscosity: 2.481 ± 0.1 mPa·s
  mass density: 802.22 ± 0.78 kg/m3
313.15 K, x2 = 0.301
  viscosity: 2.398 ± 0.097 mPa·s
  mass density: 801.08 ± 0.78 kg/m3
313.15 K, x2 = 0.4
  viscosity: 2.317 ± 0.094 mPa·s
  mass density: 799.95 ± 0.78 kg/m3
313.15 K, x2 = 0.5
  viscosity: 2.248 ± 0.091 mPa·s
  mass density: 798.81 ± 0.78 kg/m3
313.15 K, x2 = 0.6
  viscosity: 2.196 ± 0.089 mPa·s
  mass density: 797.67 ± 0.77 kg/m3
313.15 K, x2 = 0.7
  viscosity: 2.151 ± 0.087 mPa·s
  mass density: 796.51 ± 0.77 kg/m3
313.15 K, x2 = 0.8
  viscosity: 2.112 ± 0.085 mPa·s
  mass density: 795.35 ± 0.77 kg/m3
313.15 K, x2 = 0.9
  viscosity: 2.062 ± 0.083 mPa·s
  mass density: 794.14 ± 0.77 kg/m3
318.15 K, x2 = 0
  viscosity: 2.379 ± 0.096 mPa·s
  mass density: 800.47 ± 0.78 kg/m3
318.15 K, x2 = 0.1
  viscosity: 2.199 ± 0.089 mPa·s
  mass density: 799.36 ± 0.78 kg/m3
318.15 K, x2 = 0.2
  viscosity: 2.11 ± 0.085 mPa·s
  mass density: 798.21 ± 0.77 kg/m3
318.15 K, x2 = 0.301
  viscosity: 2.037 ± 0.082 mPa·s
  mass density: 797.03 ± 0.77 kg/m3
318.15 K, x2 = 0.4
  viscosity: 1.968 ± 0.08 mPa·s
  mass density: 795.86 ± 0.77 kg/m3
318.15 K, x2 = 0.5
  viscosity: 1.91 ± 0.077 mPa·s
  mass density: 794.68 ± 0.77 kg/m3
318.15 K, x2 = 0.6
  viscosity: 1.869 ± 0.076 mPa·s
  mass density: 793.49 ± 0.77 kg/m3
318.15 K, x2 = 0.7
  viscosity: 1.835 ± 0.074 mPa·s
  mass density: 792.29 ± 0.77 kg/m3
318.15 K, x2 = 0.8
  viscosity: 1.805 ± 0.073 mPa·s
  mass density: 791.09 ± 0.77 kg/m3
318.15 K, x2 = 0.9
  viscosity: 1.764 ± 0.071 mPa·s
  mass density: 789.84 ± 0.77 kg/m3
323.15 K, x2 = 0
  viscosity: 2.06 ± 0.083 mPa·s
  mass density: 796.47 ± 0.77 kg/m3
323.15 K, x2 = 0.1
  viscosity: 1.898 ± 0.077 mPa·s
  mass density: 795.33 ± 0.77 kg/m3
323.15 K, x2 = 0.2
  viscosity: 1.817 ± 0.073 mPa·s
  mass density: 794.13 ± 0.77 kg/m3
323.15 K, x2 = 0.301
  viscosity: 1.754 ± 0.071 mPa·s
  mass density: 792.91 ± 0.77 kg/m3
323.15 K, x2 = 0.4
  viscosity: 1.696 ± 0.069 mPa·s
  mass density: 791.7 ± 0.77 kg/m3
323.15 K, x2 = 0.5
  viscosity: 1.649 ± 0.067 mPa·s
  mass density: 790.47 ± 0.77 kg/m3
323.15 K, x2 = 0.6
  viscosity: 1.618 ± 0.065 mPa·s
  mass density: 789.24 ± 0.77 kg/m3
323.15 K, x2 = 0.7
  viscosity: 1.59 ± 0.064 mPa·s
  mass density: 788 ± 0.77 kg/m3
323.15 K, x2 = 0.8
  viscosity: 1.56 ± 0.063 mPa·s
  mass density: 786.75 ± 0.77 kg/m3
323.15 K, x2 = 0.9
  viscosity: 1.525 ± 0.062 mPa·s
  mass density: 785.47 ± 0.76 kg/m3
328.15 K, x2 = 0
  viscosity: 1.787 ± 0.072 mPa·s
  mass density: 792.41 ± 0.77 kg/m3
328.15 K, x2 = 0.1
  viscosity: 1.649 ± 0.067 mPa·s
  mass density: 791.24 ± 0.77 kg/m3
328.15 K, x2 = 0.2
  viscosity: 1.578 ± 0.064 mPa·s
  mass density: 789.99 ± 0.77 kg/m3
328.15 K, x2 = 0.301
  viscosity: 1.525 ± 0.062 mPa·s
  mass density: 788.72 ± 0.77 kg/m3
328.15 K, x2 = 0.4
  viscosity: 1.476 ± 0.06 mPa·s
  mass density: 787.46 ± 0.77 kg/m3
328.15 K, x2 = 0.5
  viscosity: 1.44 ± 0.058 mPa·s
  mass density: 786.19 ± 0.76 kg/m3
328.15 K, x2 = 0.6
  viscosity: 1.418 ± 0.057 mPa·s
  mass density: 784.91 ± 0.76 kg/m3
328.15 K, x2 = 0.7
  viscosity: 1.396 ± 0.056 mPa·s
  mass density: 783.62 ± 0.76 kg/m3
328.15 K, x2 = 0.8
  viscosity: 1.371 ± 0.055 mPa·s
  mass density: 782.33 ± 0.76 kg/m3
328.15 K, x2 = 0.9
  viscosity: 1.346 ± 0.054 mPa·s
  mass density: 781 ± 0.76 kg/m3

Source: the NIST ThermoML archive (doi:10.1021/acs.jced.8b00979)
